{"source": "paper PMC12881674", "about": "“Activation of TRPV3 channels in bladder cancer cells stimulates ATP release” (Molecular Pharmacology, 2025)", "target": "T1, mouse TRPV3 (Mus musculus, UniProt Q8K424)", "T1 construct": "expressed in transfected cells; host or cells: HEK293", "T1 sequence (Q8K424 1-791)": "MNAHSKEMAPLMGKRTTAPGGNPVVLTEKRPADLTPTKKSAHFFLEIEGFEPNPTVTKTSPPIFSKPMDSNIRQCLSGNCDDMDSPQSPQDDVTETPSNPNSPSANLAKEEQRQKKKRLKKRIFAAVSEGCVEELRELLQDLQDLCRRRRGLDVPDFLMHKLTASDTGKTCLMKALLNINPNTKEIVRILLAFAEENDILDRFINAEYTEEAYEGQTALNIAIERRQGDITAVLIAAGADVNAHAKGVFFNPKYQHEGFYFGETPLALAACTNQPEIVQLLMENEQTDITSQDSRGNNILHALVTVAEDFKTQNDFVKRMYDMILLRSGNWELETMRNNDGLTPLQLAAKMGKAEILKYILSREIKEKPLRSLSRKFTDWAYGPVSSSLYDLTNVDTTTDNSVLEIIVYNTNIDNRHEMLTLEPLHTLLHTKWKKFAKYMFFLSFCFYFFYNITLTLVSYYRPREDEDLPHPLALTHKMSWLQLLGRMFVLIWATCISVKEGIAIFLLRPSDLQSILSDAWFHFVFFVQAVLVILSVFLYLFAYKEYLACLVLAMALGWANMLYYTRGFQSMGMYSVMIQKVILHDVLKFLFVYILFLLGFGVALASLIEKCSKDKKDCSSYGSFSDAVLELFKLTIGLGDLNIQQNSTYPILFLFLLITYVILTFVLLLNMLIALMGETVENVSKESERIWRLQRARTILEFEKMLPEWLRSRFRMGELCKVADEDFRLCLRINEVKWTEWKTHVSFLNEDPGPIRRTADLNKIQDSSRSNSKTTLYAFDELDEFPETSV", "assay": "whole-cell patch-clamp recordings in HEKmTRPV3 cells", "type": "cell-based", "method": "Whole-cell patch-clamp recordings were performed at room temperature using an […] amplifier connected to a Digidata 1440A digitizer under the control of the pCLAMP 10 software suite (Molecular Devices). Cells were plated onto PLL-coated glass coverslips 24–48 hours prior to recordings. […] The extracellular buffer consisted of 140 mM NaCl, 5 mM CsCl, 2 mM MgCl2, 1 mM CaCl2, and 10 mM HEPES, adjusted to pH 7.4 with NaOH. Recordings were performed with a liquid junction potential of +3.6 mV, which was not corrected. Voltage ramps ranging from −100 to 100 mV (500-millisecond duration) were applied at 1-second intervals. Series resistance was <15 MΩ and compensated by 70%. Only recordings with stable access resistance and minimal leak currents were included in the analysis. […]\nFig. 2 Electrophysiological analysis of AV3-1–activated TRPV3 currents in HEKmTRPV3 cells. […] Current amplitudes were recorded using voltage ramps from −100 mV to +100 mV (500-millisecond duration) such as in B and expressed as current density (pA/pF) measured at +100 mV and −100 mV. […] (C) Quantification of current densities (pA/pF) at −100 mV (inward current) and +100 mV (outward current) at the time points (1, 6–8) as indicated in (A). […] Statistical significance was determined using Kruskal-Wallis ANOVA followed by Conover test; ∗P < .05. […]"}
{"smiles": "COC(=O)C12CN(Cc3ccccc3)CC1(C(=O)OC)CN(Cc1ccccc1)C2", "note": "(centres unmarked) [AV3-1]", "values": [{"measurement": "TRPV3 currents evoked by activator", "setting": "5 μM AV3-1, voltage ramps -100 to +100 mV", "value": "robust TRPV3-like currents"}, {"measurement": "reversibility of effect on TRPV3 upon washout", "setting": "washout of 5 μM AV3-1", "value": "fully reversible"}]}
